Test results taken from ChEMBL document CHEMBL3608278 (J Med Chem, 2015).

How the values were obtained:
[1] = target: T1, Potassium voltage-gated channel subfamily A member 3 (Homo sapiens, UniProt P22001); format: cell-based, CHO-K1
[2] = target: T1, Potassium voltage-gated channel subfamily A member 3; parameters: species or system Blood
[3] = target: T1, Potassium voltage-gated channel subfamily A member 3; assay: cell-based; parameters: species or system Blood

T1 sequence (P22001 whole entry): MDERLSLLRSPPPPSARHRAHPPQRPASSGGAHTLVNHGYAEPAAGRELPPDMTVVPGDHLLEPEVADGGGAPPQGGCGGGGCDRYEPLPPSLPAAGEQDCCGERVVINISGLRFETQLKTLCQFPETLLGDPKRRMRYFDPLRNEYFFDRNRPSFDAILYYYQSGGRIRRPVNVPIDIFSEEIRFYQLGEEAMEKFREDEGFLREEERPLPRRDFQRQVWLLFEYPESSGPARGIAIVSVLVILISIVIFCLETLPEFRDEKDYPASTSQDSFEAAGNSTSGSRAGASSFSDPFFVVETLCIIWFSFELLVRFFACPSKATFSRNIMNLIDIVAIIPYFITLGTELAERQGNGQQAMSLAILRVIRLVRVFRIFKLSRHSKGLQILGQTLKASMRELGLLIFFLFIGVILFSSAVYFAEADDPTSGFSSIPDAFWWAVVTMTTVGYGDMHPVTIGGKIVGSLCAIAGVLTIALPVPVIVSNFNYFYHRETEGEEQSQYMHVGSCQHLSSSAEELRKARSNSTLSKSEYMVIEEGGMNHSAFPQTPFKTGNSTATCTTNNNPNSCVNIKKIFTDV

Row | SMILES | IC50 [1] [nM] | IC50 [2] [nM] | IC50 [3] [nM]
1 | CC[C@H](C)[C@@H]1NC(=O)[C@@H](NC(=O)[C@H](CO)NC(=O)[C@@H](N)CCCNC(=N)N)CSSC[C@@H](C(=O)O)NC(=O)[C@H]([C@@H](C)O)NC(=O)CNC(=O)[C@@H]2CSSC[C@@H]3NC(=O)[C@H](CCC(N)=O)NC(=O)[C@H](Cc4ccccc4)NC(=O)[C@H](C)NC(=O)[C@H]([C@@H](C)O)NC(=O)[C@H](CSSC[C@H](NC(=O)[C@H](Cc4ccccc4)NC(=O)[C@H](CO)NC(=O)[C@H](CC(C)C)NC(=O)[C@H](CCCNC(=N)N)NC(=O)[C@H](Cc4ccc(O)cc4)NC(=O)[C@H](CCCCN)NC(=O)[C@H](CCSC)NC(=O)[C@H](CO)NC(=O)[C@H](Cc4cnc[nH]4)NC(=O)[C@H](CCCCN)NC3=O)C(=O)N[C@@H](CCCNC(=N)N)C(=O)N[C@@H](CCCCN)C(=O)N[C@@H]([C@@H](C)O)C(=O)N2)NC(=O)[C@H](CCCNC(=N)N)NC(=O)[C@H](CO)NC(=O)[C@H](CCCCN)NC(=O)[C@@H]2CCCN2C(=O)[C@H](C)NC(=O)[C@H]([C@@H](C)O)NC(=O)[C@H](CC(=O)O)NC1=O | 0.201 | 1.98 | 0.748
2 | CC[C@H](C)[C@@H]1NC(=O)[C@@H](NC(=O)[C@H](CO)NC(=O)[C@@H](N)CCCNC(=N)N)CSSC[C@@H](C(=O)O)NC(=O)[C@H]([C@@H](C)O)NC(=O)CNC(=O)[C@@H]2CSSC[C@@H]3NC(=O)[C@H](CCC(N)=O)NC(=O)[C@H](Cc4ccccc4)NC(=O)[C@H](C)NC(=O)[C@H]([C@@H](C)O)NC(=O)[C@H](CSSC[C@H](NC(=O)[C@H](Cc4ccccc4)NC(=O)[C@H](CO)NC(=O)[C@H](CC(C)C)NC(=O)[C@H](CCCNC(=N)N)NC(=O)[C@H](Cc4ccc(O)cc4)NC(=O)[C@H](CCCCN)NC(=O)[C@H](CCSC)NC(=O)[C@H](CO)NC(=O)[C@H](Cc4cnc[nH]4)NC(=O)[C@H](CCCCN)NC3=O)C(=O)N[C@@H](CCCNC(=N)N)C(=O)N[C@@H](CCCCN)C(=O)N[C@@H]([C@@H](C)O)C(=O)N2)NC(=O)[C@H](CCCNC(=N)N)NC(=O)[C@H](CO)NC(=O)[C@H](CCCCN)NC(=O)[C@H](C)NC(=O)[C@H]([C@@H](C)CC)NC(=O)[C@H]([C@@H](C)O)NC(=O)[C@H](CC(=O)O)NC1=O | 0.079 | 0.066 | 0.034
3 | CC[C@H](C)[C@@H]1NC(=O)[C@@H](NC(=O)[C@H](CO)NC(=O)[C@@H](N)CCCNC(=N)N)CSSC[C@@H](C(=O)O)NC(=O)[C@H]([C@@H](C)O)NC(=O)CNC(=O)[C@@H]2CSSC[C@@H]3NC(=O)[C@H](CCC(N)=O)NC(=O)[C@H](Cc4ccccc4)NC(=O)[C@H](C)NC(=O)[C@H]([C@@H](C)O)NC(=O)[C@H](CSSC[C@H](NC(=O)[C@H](Cc4ccccc4)NC(=O)[C@H](CO)NC(=O)[C@H](CC(C)C)NC(=O)[C@H](CCCNC(=N)N)NC(=O)[C@H](Cc4ccc(O)cc4)NC(=O)[C@H](CCCCN)NC(=O)[C@H](CCSC)NC(=O)[C@H](CO)NC(=O)[C@H](Cc4cnc[nH]4)NC(=O)[C@H](CCCCN)NC3=O)C(=O)N[C@@H](CCCNC(=N)N)C(=O)N[C@@H](CCCCN)C(=O)N[C@@H]([C@@H](C)O)C(=O)N2)NC(=O)[C@H](CCCNC(=N)N)NC(=O)[C@H](CO)NC(=O)[C@H](C)NC(=O)[C@@H]2CCCN2C(=O)[C@H]([C@@H](C)CC)NC(=O)[C@H]([C@@H](C)O)NC(=O)[C@H](CC(=O)O)NC1=O | 0.119 | 0.081 | 0.045
4 | CC[C@H](C)[C@@H]1NC(=O)[C@@H](NC(=O)[C@H](CO)NC(=O)[C@@H](N)CCCNC(=N)N)CSSC[C@@H](C(=O)O)NC(=O)[C@H]([C@@H](C)O)NC(=O)CNC(=O)[C@@H]2CSSC[C@@H]3NC(=O)[C@H](CCC(N)=O)NC(=O)[C@H](Cc4ccccc4)NC(=O)[C@H](C)NC(=O)[C@H]([C@@H](C)O)NC(=O)[C@H](CSSC[C@H](NC(=O)[C@H](Cc4ccccc4)NC(=O)[C@H](CO)NC(=O)[C@H](CC(C)C)NC(=O)[C@H](CCCNC(=N)N)NC(=O)[C@H](Cc4ccc(O)cc4)NC(=O)[C@H](CCCCN)NC(=O)[C@H](CCSC)NC(=O)[C@H](CCCCN)NC(=O)[C@H](Cc4cnc[nH]4)NC(=O)[C@H](CCCCN)NC3=O)C(=O)N[C@@H](CCCNC(=N)N)C(=O)N[C@@H](CCCCN)C(=O)N[C@@H]([C@@H](C)O)C(=O)N2)NC(=O)[C@H](CCCNC(=N)N)NC(=O)[C@H](CO)NC(=O)[C@H](CCCCN)NC(=O)[C@@H]2CCCN2C(=O)[C@H]([C@@H](C)CC)NC(=O)[C@H]([C@@H](C)O)NC(=O)[C@H](CC(=O)O)NC1=O | 0.193 | 0.193 | 0.108
5 | CC[C@H](C)[C@@H]1NC(=O)[C@@H](NC(=O)[C@H](CO)NC(=O)[C@@H](N)CCCNC(=N)N)CSSC[C@@H](C(=O)O)NC(=O)[C@H]([C@@H](C)O)NC(=O)CNC(=O)[C@@H]2CSSC[C@@H]3NC(=O)[C@H](CCC(N)=O)NC(=O)[C@H](Cc4ccccc4)NC(=O)[C@H](C)NC(=O)[C@H]([C@@H](C)O)NC(=O)[C@H](CSSC[C@H](NC(=O)[C@H](Cc4ccccc4)NC(=O)[C@H](CO)NC(=O)[C@H](CC(C)C)NC(=O)[C@H](CCCNC(=N)N)NC(=O)[C@H](Cc4ccc(O)cc4)NC(=O)[C@H](CCCCN)NC(=O)[C@H](CCCCN)NC(=O)[C@H](CO)NC(=O)[C@H](Cc4cnc[nH]4)NC(=O)[C@H](CCCCN)NC3=O)C(=O)N[C@@H](CCCNC(=N)N)C(=O)N[C@@H](CCCCN)C(=O)N[C@@H]([C@@H](C)O)C(=O)N2)NC(=O)[C@H](CCCNC(=N)N)NC(=O)[C@H](CO)NC(=O)[C@H](CCCCN)NC(=O)[C@@H]2CCCN2C(=O)[C@H]([C@@H](C)CC)NC(=O)[C@H]([C@@H](C)O)NC(=O)[C@H](CC(=O)O)NC1=O | 0.798 | 4.82 | 3.59
6 | CC[C@H](C)[C@@H]1NC(=O)[C@@H](NC(=O)[C@H](CO)NC(=O)[C@@H](N)CCCNC(=N)N)CSSC[C@@H](C(=O)O)NC(=O)[C@H]([C@@H](C)O)NC(=O)CNC(=O)[C@@H]2CSSC[C@@H]3NC(=O)[C@H](CCC(N)=O)NC(=O)[C@H](Cc4ccccc4)NC(=O)[C@H](C)NC(=O)[C@H]([C@@H](C)O)NC(=O)[C@H](CSSC[C@H](NC(=O)[C@H](Cc4ccccc4)NC(=O)[C@H](CCCCN)NC(=O)[C@H](CC(C)C)NC(=O)[C@H](CCCNC(=N)N)NC(=O)[C@H](Cc4ccc(O)cc4)NC(=O)[C@H](CCCCN)NC(=O)[C@H](CCSC)NC(=O)[C@H](CO)NC(=O)[C@H](Cc4cnc[nH]4)NC(=O)[C@H](CCCCN)NC3=O)C(=O)N[C@@H](CCCNC(=N)N)C(=O)N[C@@H](CCCCN)C(=O)N[C@@H]([C@@H](C)O)C(=O)N2)NC(=O)[C@H](CCCNC(=N)N)NC(=O)[C@H](CO)NC(=O)[C@H](CCCCN)NC(=O)[C@@H]2CCCN2C(=O)[C@H]([C@@H](C)CC)NC(=O)[C@H]([C@@H](C)O)NC(=O)[C@H](CC(=O)O)NC1=O | 0.122 | 0.496 | 0.273
7 | CC[C@H](C)[C@@H]1NC(=O)[C@@H](NC(=O)[C@H](CO)NC(=O)[C@@H](N)CCCNC(=N)N)CSSC[C@@H](C(=O)O)NC(=O)[C@H]([C@@H](C)O)NC(=O)CNC(=O)[C@@H]2CSSC[C@@H]3NC(=O)[C@H](CCC(N)=O)NC(=O)[C@H](Cc4ccccc4)NC(=O)[C@H](C)NC(=O)[C@H]([C@@H](C)O)NC(=O)[C@H](CSSC[C@H](NC(=O)[C@H](CCCCN)NC(=O)[C@H](CO)NC(=O)[C@H](CC(C)C)NC(=O)[C@H](CCCNC(=N)N)NC(=O)[C@H](Cc4ccc(O)cc4)NC(=O)[C@H](CCCCN)NC(=O)[C@H](CCSC)NC(=O)[C@H](CO)NC(=O)[C@H](Cc4cnc[nH]4)NC(=O)[C@H](CCCCN)NC3=O)C(=O)N[C@@H](CCCNC(=N)N)C(=O)N[C@@H](CCCCN)C(=O)N[C@@H]([C@@H](C)O)C(=O)N2)NC(=O)[C@H](CCCNC(=N)N)NC(=O)[C@H](CO)NC(=O)[C@H](CCCCN)NC(=O)[C@@H]2CCCN2C(=O)[C@H]([C@@H](C)CC)NC(=O)[C@H]([C@@H](C)O)NC(=O)[C@H](CC(=O)O)NC1=O | 0.985 | 11.8 | 3.49
8 | CC[C@H](C)[C@@H]1NC(=O)[C@@H](NC(=O)[C@H](CO)NC(=O)[C@@H](N)CCCNC(=N)N)CSSC[C@@H](C(=O)O)NC(=O)[C@H]([C@@H](C)O)NC(=O)CNC(=O)[C@@H]2CSSC[C@@H]3NC(=O)[C@H](CCC(N)=O)NC(=O)[C@H](Cc4ccccc4)NC(=O)[C@H](C)NC(=O)[C@H]([C@@H](C)O)NC(=O)[C@H](CSSC[C@H](NC(=O)[C@H](Cc4ccccc4)NC(=O)[C@H](CO)NC(=O)[C@H](CC(C)C)NC(=O)[C@H](CCCNC(=N)N)NC(=O)[C@H](Cc4ccc(O)cc4)NC(=O)[C@H](CCCCN)NC(=O)[C@H](CCSC)NC(=O)[C@H](CO)NC(=O)[C@H](Cc4cnc[nH]4)NC(=O)[C@H](CCCCN)NC3=O)C(=O)N[C@@H](CCCCN)C(=O)N[C@@H](CCCCN)C(=O)N[C@@H]([C@@H](C)O)C(=O)N2)NC(=O)[C@H](CCCNC(=N)N)NC(=O)[C@H](CO)NC(=O)[C@H](CCCCN)NC(=O)[C@@H]2CCCN2C(=O)[C@H]([C@@H](C)CC)NC(=O)[C@H]([C@@H](C)O)NC(=O)[C@H](CC(=O)O)NC1=O | 0.293 | 0.071 | 0.041
9 | CC[C@H](C)[C@@H]1NC(=O)[C@@H](NC(=O)[C@H](CO)NC(=O)[C@@H](N)CCCNC(=N)N)CSSC[C@@H](C(=O)O)NC(=O)[C@H]([C@@H](C)O)NC(=O)CNC(=O)[C@@H]2CSSC[C@@H]3NC(=O)[C@H](CCC(N)=O)NC(=O)[C@H](Cc4ccccc4)NC(=O)[C@H](C)NC(=O)[C@H]([C@@H](C)O)NC(=O)[C@H](CSSC[C@H](NC(=O)[C@H](Cc4ccccc4)NC(=O)[C@H](CO)NC(=O)[C@H](CC(C)C)NC(=O)[C@H](CCCNC(=N)N)NC(=O)[C@H](Cc4ccc(O)cc4)NC(=O)[C@H](CCCCN)NC(=O)[C@H](CCSC)NC(=O)[C@H](CO)NC(=O)[C@H](C)NC(=O)[C@H](CCCCN)NC3=O)C(=O)N[C@@H](CCCNC(=N)N)C(=O)N[C@@H](CCCCN)C(=O)N[C@@H]([C@@H](C)O)C(=O)N2)NC(=O)[C@H](CCCNC(=N)N)NC(=O)[C@H](CO)NC(=O)[C@H](CCCCN)NC(=O)[C@@H]2CCCN2C(=O)[C@H]([C@@H](C)CC)NC(=O)[C@H]([C@@H](C)O)NC(=O)[C@H](CC(=O)O)NC1=O | 0.24 | 0.556 | 0.301
